Data: patent publication US10912767B2, “Anthracycline prodrugs and methods of making and using the same” (THE REGENTS OF THE UNIVERSITY OF COLORADO, priority 2015, dated 2021)

Legend:
[1] = tested on: orthotopic MDA-MB-231 human breast tumor xenografts; assay: In vivo mouse efficacy, tumor bioluminescence; design: species or system nude mice; details: 4 mg/kg dox equivalent iv + 18-FDG ip, weekly x6
Description: (§1) For reconstitution for intravenous injection into mice, dry photodoxazolidine R═H (23 mg) was dissolved in 785 μL of DMSO for a final concentration of 34.5 mM, labeled “Drug Stock,” and stored dark at −20° C. Shortly before injection, the Drug Stock was thawed and 20-50 μL was transferred to a new tube. To this tube, 6 volumes (relative to the Drug Stock volume) of PEG-400 and 4 volumes of propylene glycol (PG) were added and the solution thoroughly mixed by vortexing. Immediately prior to injection, 9 volumes of saline (0.9% NaCl) was added to the DMSO/PEG/PG solution of photodoxazolidine and mixed by vortexing. […] Therefore, this formulation was used as prepared. This protocol produces a final formulation of 5% DMSO, 30% PEG-400, 20% PG, 45% saline. A standard injection of 100 μL of this formulation delivers 4 mg dox equivalent/kg body weight for a mouse weighing 0.025 kg.
(§2) Luciferase-positive MDA-MB-231 cells were maintained in MEM culture medium supplemented with 10% heat inactivated fetal bovine serum and 2% penicillin/streptomycin. Prior to injection, typsinized cell populations were counted with a Z1 Coulter Particle counter, centrifuged, and resuspended in Hank's Balanced Salt Solution (HBSS) at a concentration of 4.0×10^7 cells/mL. […] Body weight and tumor growth were measured regularly. Tumor growth was measured optically from the bioluminescence signal from injection of luciferin. […]

[2] = In vivo body weight change as indication of toxicity; design: species or system nude mice; details: 4 mg/kg dox equivalent iv weekly x6; photodoxazolidine with 18-FDG ip
Description: as §1, §2

[3] = Solubility observed in irradiation solvent; assay type: physicochemical
Text: In order to investigate the photolysis of the drugs in a system amenable to cell culture use, a custom UV irradiation apparatus was constructed, consisting of 3 small blacklight fluorescent bulbs (Southern New England Ultraviolet Co., λmax=350 nm) set between two ring stands and suspended at a height of 11.5 cm. The bulbs' housing was reflective aluminum so as to direct as much UV irradiation as possible downward toward the plate. Upon installation in sterile cell culture hood, the power of the system was measured at approximately 6-7 mW using a Scientech laser power meter. Prior to experimentation, the hood and irradiation apparatus was sterilized with 254 nm germicidal UV irradiation overnight. Using this setup, 100 μM of 4,5-dimethoxy-2-nitrobenyl alcohol (DMNA), photodoxazolidine R═H, and glucose-PEG-photodoxazoldine were irradiated in individual wells of a 24-well plate. Initially, 50 μL of a DMSO stock was diluted with 950 μL of PBS and aliquots of 50 μL were removed at various times (0-180 min), mixing by pipetting each time. The timepoints were analyzed by HPLC (method 2) and plotted as fractional conversion versus time. […]
The measured quantum yield of 0.002 for photodoxazolidine R═H (above) was lower than expected, which raised the possibility that the presence of the anthraquinone ring complex in the prodrugs was inhibiting photocleavage by quenching the activated state. […]

COc1cc(COC(=O)N2COC3C(C)OC(OC4CC(O)(C(=O)CO)Cc5c(O)c6c(c(O)c54)C(=O)c4c(OC)cccc4C6=O)CC32)c([N+](=O)[O-])cc1OC (stereo not drawn) [Photodoxazolidine]
tumor bioluminescence [1]: significant reductions in tumor bioluminescence | body weight change [2]: no significant change | solubility in PBS [3]: poor solubility
